Key:
[1] = target: T1, glucocorticoid receptors (GR) in SW1353/MMTV-5 cells (Homo sapiens, UniProt P04150); experiment: GR functional assay using SW1353/MMTV-5 cells (MMTV-luciferase reporter); format: cell-based
T1 construct: contains endogenous glucocorticoid receptors; endogenous in cells; host or cells: SW1353/MMTV-5 (human chondrosarcoma, stably transfected with the pMAMneo-Luc reporter only)
T1 sequence (P04150 1-777): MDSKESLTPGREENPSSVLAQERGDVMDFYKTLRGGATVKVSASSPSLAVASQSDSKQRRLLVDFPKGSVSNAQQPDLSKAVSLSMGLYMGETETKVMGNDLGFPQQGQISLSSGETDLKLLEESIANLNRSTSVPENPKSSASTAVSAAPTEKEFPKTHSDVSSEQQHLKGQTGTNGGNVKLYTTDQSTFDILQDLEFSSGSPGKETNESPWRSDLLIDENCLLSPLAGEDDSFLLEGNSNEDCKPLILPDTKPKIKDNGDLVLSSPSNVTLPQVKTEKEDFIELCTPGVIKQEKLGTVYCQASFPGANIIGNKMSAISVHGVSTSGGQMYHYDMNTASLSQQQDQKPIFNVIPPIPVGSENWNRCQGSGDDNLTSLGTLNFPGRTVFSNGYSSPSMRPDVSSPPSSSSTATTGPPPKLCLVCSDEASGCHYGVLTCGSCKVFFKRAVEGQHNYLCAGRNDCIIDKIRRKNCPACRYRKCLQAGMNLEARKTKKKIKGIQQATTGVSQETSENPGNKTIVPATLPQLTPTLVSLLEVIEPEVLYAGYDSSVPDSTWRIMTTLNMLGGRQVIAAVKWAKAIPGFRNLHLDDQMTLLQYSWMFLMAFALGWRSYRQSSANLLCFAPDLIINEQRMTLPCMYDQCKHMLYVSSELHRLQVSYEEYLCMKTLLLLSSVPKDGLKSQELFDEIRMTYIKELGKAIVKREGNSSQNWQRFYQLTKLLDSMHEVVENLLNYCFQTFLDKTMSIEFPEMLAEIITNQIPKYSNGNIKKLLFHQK
Protocol: SW1353/MMTV-5 is an adherent human chondrosarcoma cell line that contains endogenous glucocorticoid receptors. It was transfected with a plasmid (pMAMneo-Luc) encoding firefly luciferase located behind a glucocorticoid-responsive element (GRE) derived from a viral promoter (long terminal repeat of mouse mammary tumor virus). A stable cell line SW1353/MMTV-5 was selected with geneticin, which was required to maintain this plasmid.
SW1353/MMTV-5 cells were distributed in 96-well plates and incubated in medium (without geneticin) for 24 hrs (in the absence of CO2).

[2] = target: T2, Human Recombinant Glucocorticoid Receptor (Homo sapiens, UniProt P04150); experiment: Glucocorticoid receptor binding displacement assay with 3H-dexamethasone; conditions: displacement of 2.5 nM 3H-dexamethasone; Ki from IC50 by Cheng-Prusoff; read-out: GR Binding Ki
T2 construct: This GR was a full-length steroid hormone receptor likely to be associated with heat-shock and other endogenous proteins; host or cells: baculovirus-infected insect cells
T2 sequence (P04150 1-777): T1 sequence (P04150 1-777)
Protocol: The source of the receptor was recombinant baculovirus-infected insect cells. This GR was a full-length steroid hormone receptor likely to be associated with heat-shock and other endogenous proteins.
For the Primary Screen, test compounds were tested at 1 μM in duplicate. These compounds were diluted from 10 mM stock in 100% DMSO. After dilution to 100 μM, 5 μl were added to 245 μl assay buffer to obtained 2 μM compound and 2% DMSO.
For the IC50 determinations, test compounds were tested at 6 concentrations in duplicate (concentration range depends on % inhibition binding that was obtained in the Primary Screen). Test compounds were diluted from 10 mM stock in 100% DMSO. The tested solutions were prepared at 2× final assay concentration in 2% DMSO/assay buffer.
All reagents and the assay plate were kept on ice during the addition of reagents. […] After the additions, the incubation mixture was mixed and incubated for 2.5 hrs at 4° C.
After 2.5 hrs incubation, unbound counts were removed with dextran coated charcoal (DCC) as follows: 25 μl of DCC solution (10% DCC in assay buffer) was added to all wells and mixed (total volume 225 μl). The plate was centrifuged at 4000 rpm for 10 minutes at 4° C. 75 μl of the supernatants (i.e.⅓ of total volume) was carefully pipetted into an optiplate. 200 μl of scintillation cocktail were added (Microscint-40, Packard Bioscience. B.V.). The plate was vigorously shaken for approx. 10 minutes and counted on Topcount.
The IC50 values were converted to Ki (the inhibition constant) using the Cheng-Prusoff equation. Test results are presented in Tablel.
Reagents: Assay buffer: 10 mM potassium phosphate buffer pH 7.6 containing 5 mM DTT, 10 mM sodium molybdate, 100 μM EDTA and 0.1% BSA.

| SMILES | Ki [1] [nM] | Ki [2] [nM] |
| --- | --- | --- |
| CCOC[C@]12Cc3cnn(-c4ccc(F)cc4)c3C=C1CCN(S(=O)(=O)c1cnc3c(c1)OCCN3C)C2 [Example 3] | 10 to 50 | < 0.5 |
| COC[C@]12Cc3cnn(-c4ccc(F)cc4)c3C=C1CCN(S(=O)(=O)c1cncc(N3CCOCC3)c1)C2 [Example 12, (R)-1-(4-Fluorophenyl)-4a-methoxymethyl-6-(5-morpholin-4-ylpyridine-3-sulfonyl)-4,4a,5,6,7,8-hexahydro-1H-1,2,6-triazacyclopenta[b]naphthalene] | > 50 | > 1 |
| O=S(=O)(c1ccc(N2CC[C@H](O)C2)nc1)N1CCC2=Cc3c(cnn3-c3ccc(F)cc3)C[C@]2(COCC2CC2)C1 [Example 29, (S)-1-{5-[(R)-4a-Cyclopropylmethoxymethyl-1-(4-fluorophenyl)-1,4,4a,5,6,7,8-hexahydro-1,2,6-triaza-cyclopenta[b]naphthalene-6-sulfonyl]pyridine-2-yl}-pyrrolidine-3-ol] | 10 to 50 | 0.5 to 1 |
| Cc1cc(COC(=O)[C@]23Cc4cnn(-c5ccc(F)cc5)c4C=C2CCN(S(=O)(=O)c2ccc(N4CC[C@@H](F)C4)nc2)C3)no1 [Example 60, (R)-1-(4-Fluorophenyl)-6-[6-((R)-3-fluoropyrrolidin-1-yl)-pyridine-3-sulfonyl]-1,4,5,6,7,8-hexahydro-1,2,6-triaza-cyclopenta[b]naphthalene-4a-carboxylic acid 5-methylisoxazol-3-ylmethyl ester] | 10 to 50 | 0.5 to 1 |
| COC[C@]12Cc3cnn(-c4ccc(F)cc4)c3C=C1CCN(S(=O)(=O)c1ccc(N3CC[C@H](O)C3)nc1)C2 [Example 22, (S)-1-{5-[(R)-1-(4-Fluorophenyl)-4a-methoxymethyl-1,4,4a,5,6,7,8-hexahydro-1,2,6-triaza-cyclopenta[b]naphthalene-6-sulfonyl]-pyridin-2-yl}-pyrrolidin-3-ol] | > 50 | > 1 |
| O=S(=O)(c1ccc(N2CCOCC2)nc1)N1CCC2=Cc3c(cnn3-c3ccc(F)cc3)C[C@]2(CO)C1 [Example 1d, [(R)-1-(4-Fluorophenyl)-6-[[6-(4-morpholinyl)-3-pyridinyl]sulfonyl]-1,4,7,8-tetrahydro-1,2,6-triazacyclopenta[b]naphthalen-4a-yl]methanol] | > 50 | > 1 |
| O=S(=O)(c1ccc(N2CC(F)C2)nc1)N1CCC2=Cc3c(cnn3-c3ccc(F)cc3)C[C@]2(COCC2CC2)C1 [Example 30, (R)-4a-Cyclopropylmethoxymethyl-6-[6-(3-fluoroazetin-1-yl)-pyridine-3-sulfonyl]-1-(4-fluorophenyl)-1,4,4a,5,6,7,8-hexahydro-1H-1,2,6-triaza-cyclopenta[b]naphthalene] | < 10 | < 0.5 |
| O=S(=O)(c1ccc(N2CC[C@@H](F)C2)nc1)N1CCC2=Cc3c(cnn3-c3ccc(F)cc3)C[C@]2(COCC2CC2)C1 [Example 26, (R)-4a-Cyclopropylmethoxymethyl-1-(4-fluorophenyl)-6-(6-((R)-3-fluoro-pyrrolidin-1-yl)-pyridine-3-sulfonyl)-4,4a,5,6,7,8-hexahydro-1H-1,2,6-triaza-cyclopenta[b]naphthalene] | < 10 | 0.5 to 1 |
| O=C(OCC1CC1)[C@]12Cc3cnn(-c4ccc(F)cc4)c3C=C1CCN(S(=O)(=O)c1ccc(N3CCOCC3)nc1)C2 [Example 51, (R)-1-(4-Fluorophenyl)-6-(6-morpholin-4-yl-pyridine-3-sulfonyl]-1,4,5,6,7,8-hexahydro-1,2,6-triaza-cyclopenta[b]naphthalene-4a-carboxylic acid cyclopropylmethyl ester] | < 10 | 0.5 to 1 |
| Cc1cc(COC[C@]23Cc4cnn(-c5ccc(F)cc5)c4C=C2CCN(S(=O)(=O)c2ccc(N4CC[C@@H](F)C4)nc2)C3)no1 [Example 35, (R)-1-(4-Fluorophenyl)-6-[6-((R)-3-fluoropyrrolidin-1-yl)-pyridine-3-sulfonyl]-4a-(5-methyl-isoxazol-3-ylmethoxymethyl)-4,4a,5,6,7,8-hexahydro-1H-1,2,6-triaza-cyclopenta[b]naphthalene] | 10 to 50 | > 1 |
| COC[C@]12Cc3cnn(-c4ccc(F)cc4)c3C=C1CCN(S(=O)(=O)c1ccnc(N3CCCC3)c1)C2 [Example 42, (R)-1-(4-Fluorophenyl)-4a-methoxymethyl-6-(2-pyrrolidin-1-yl-pyridine-4-sulfonyl)-4,4a,5,6,7,8-hexahydro-1H-1,2,6-triaza-cyclopenta[b]naphthalene] | < 10 | > 1 |
| COC[C@]12Cc3cnn(-c4ccc(F)cc4)c3C=C1CCN(S(=O)(=O)c1ccnc(N3CC[C@@H](O)C3)c1)C2 [Example 43, (R)-1-{4-[(R)-1-(4-Fluorophenyl)-4a-methoxymethyl-1,4,4a,5,6,7,8-hexahydro-1,2,6-triaza-cyclopenta[b]naphthalene-6-sulfonyl]-pyridin-2-yl}-pyrrolidin-3-ol] | > 50 | > 1 |
| COC[C@]12Cc3cnn(-c4ccc(F)cc4)c3C=C1CCN(S(=O)(=O)c1ccc(N3CCC3)nc1)C2 [Example 11, (R)-6-[[6-(1-Azetidinyl)-3-pyridinyl]sulfonyl]-1-(4-fluorophenyl)-4a-methoxymethyl-1,4,7,8-tetrahydro-1,2,6-triazacyclopenta[b]naphthalene] | 10 to 50 | 0.5 to 1 |
| O=S(=O)(c1ccc(N2CC[C@@H](F)C2)nc1)N1CCC2=Cc3c(cnn3-c3ccc(F)cc3)C[C@]2(COCCO)C1 [Example 34, 2-{(R)-1-(4-Fluorophenyl)-6-[6-((R)-3-fluoropyrrolidin-1-yl)-pyridine-3-sulphonyl]-1,4,5,6,7,8-hexahydro-1,2,6-triaza-cyclopenta[b]naphthalene-4a-ylmethoxy}-ethanol] | > 50 | > 1 |
| COCCOC[C@]12Cc3cnn(-c4ccc(F)cc4)c3C=C1CCN(S(=O)(=O)c1ccc(N3CC[C@@H](F)C3)nc1)C2 [Example 33, (R)-1-(4-Fluorophenyl)-6-[6-((R)-3-fluoropyrrolidin-1-yl)-pyridine-3-sulfonyl]-4a-(2-methoxyethoxymethyl)-4,4a,5,6,7,8-hexahydro-1H-1,2,6-triaza-cyclopenta[b]naphthalene] | < 10 | 0.5 to 1 |
| O=S(=O)(c1ccc(N2CCOCC2)nc1)N1CCC2=Cc3c(cnn3-c3ccc(F)cc3)C[C@]2(COCC2CC2)C1 [Example 32, (R)-4a-Cyclopropylmethoxymethyl-1-(4-fluorophenyl)-6-(6-morpholin-4-yl-pyridine-3-sulfonyl)-4,4a,5,6,7,8-hexahydro-1H-1,2,6-triaza-cyclopenta[b]naphthalene] | < 10 | 0.5 to 1 |
| COC[C@]12Cc3cnn(-c4ccc(F)cc4)c3C=C1CCN(S(=O)(=O)c1cncc(N3CC[C@@H](F)C3)c1)C2 [Example 40, (R)-1-(4-Fluorophenyl)-6-[5-((R)-3-fluoropyrrolidin-1-yl)-pyridine-3-sulfonyl]-4a-methoxymethyl-4,4a,5,6,7,8-hexahydro-1H-1,2,6-triaza-cyclopenta[b]naphthalene] | < 10 | > 1 |

— US8598154B2 (Corcept Therapeutics, Inc., priority 2010, dated 2013)
